In US20220267753A1, “RATIONAL THERAPEUTIC TARGETING OF ONCOGENIC IMMUNE SIGNALING STATES IN MYELOID MALIGNANCIES VIA THE UBIQUITIN CONJUGATING ENZYME UBE2N” (CHILDREN'S HOSPITAL MEDICAL CENTER, priority 2019, published 2022):
Where two headings read alike, the source gives them in different places.

How the values were obtained:
In vivo toxicity study = details: 4 doses of 25 mg/kg over 2 weeks, mice
Method: PK studies of UC-764864 and UC-764865 were performed in C57BL/6 mice (18-22 g). 10 mg/kg and 20 mg/kg UC-764864 or UC-764865 was administered through intraperitoneal (i.p.) injection. After dosing, blood samples were collected at 15 min, 30 min, 1 h, 2 h, 4 h, 8 h, 12 h, and 24 h. Samples from three animals were collected at each time point. Approximately 500 μL of blood was collected via orbital vein from each mouse, processed, and analyzed by LC-MS. Standard curves were prepared in blood covering the concentration range of 50-3,0000 ng/mL. Using the data from the standard curves, calibration curves were generated for PK tests. For in vivo toxicity studies, 25 mg/kg UC-764864, UC-764865, 10 mg/kg NSC697923 or vehicle control (methocel 0.5% tween-20 0.2%,0.1% DMSO in water) were administered in B6.SJL-Ptprca Pepcb/BoyJ mice (n=3/group) through i.p. injection. For 2 weeks the mice received 4 doses of each compound. Routine body weight and blood counts were performed. At the end of the study, tissues were harvested, placed in 10% buffered formalin, stained with hematoxylin and eosin (H&E) and examined by a pathologist.

[1] = tested on: patient-derived AML cells; test: Patient-derived xenografts (PDX) in NSGS mice; assay type: in vivo
AML cell lines = test: Cell proliferation MTS assay, panel of AML cell lines; assay type: cell-based; details: Homo sapiens
Method: (§1) AML cell lines (5×10^3 cells/well) were seeded in 96-well plates and grown for 24 to 96 h in serum (10%)-containing medium in the presence or absence of inhibitors at the indicated concentrations. Proliferation was analyzed by means of an MTS assay using the CellTiter 96 Aqueous One Solution Cell Proliferation Assay (Promega, Madison, Wis., USA), according to the manufacturer's instructions. Data are mean with standard deviation from three independent experiments in technical triplicates. For the screening of 160 compounds from the UC library, the cell metabolic activity was assessed at 24 hours of treatment of MOLM-13 cells. Top 15 candidates were re-screened at 2 μM, and the cell metabolic activity was determined at 24 hours of treatment. In certain experiments, cell viability was determined by staining the cells with trypan blue at a 1/2 dilution and counting total number of viable cells upon treatment with UC-764864 or DMSO control. The cells were counted daily for 4 days using an automated cell counter (Countess II FL from Life Technologies). […] UC-764864 was added at the indicated concentrations and cells were incubated with drug for 3 days, at which point cell viability was measured by MTS according to manufacturer's instructions.

Cord Blood CD34+ = test: Cell proliferation MTS assay; assay type: cell-based, human
Method: as §1

MOLM-13 and THP-1 cells = test: Immunoblot / qRT-PCR of NF-κB, STAT1 and IRF signaling; assay type: cell-based, human; details: 2 μM
Method: mRNA expression of selected genes was corroborated by quantitative reverse transcriptase PCR (see primer sequences in Table 2) using cDNA with SYBR® Green or Taqman® gene expression assays (Applied Biosystems, Waltham, Mass.) on the StepOnePlus from Applied Biosystems. Abundance of each transcript was calculated using the Pfaffl Method. Actin or GAPDH were used as housekeeping genes.
For immunoblots, total protein lysates were obtained from cells by lysing the samples in cold RIPA buffer (50 mM Tris-HCl, 150 mM NaCl, 1 mM EDTA, 1% Triton X-100 and 0.1% SDS), in the presence of PMSF, sodium orthovanadate, protease and phosphatase inhibitors. After being re-suspended in RIPA, cells were lysed in the cold room with rocking for 15 min. Protein concentration was evaluated by a BCA assay (Pierce, Waltham, Mass.). SDS sample buffer was added to the lysates and the proteins were separated by SDS-polyacrylamide gel electrophoresis, transferred to PVDF or nitrocellulose membranes, and analyzed by immunoblotting. […] Membranes were imaged with Biorad ChemiDoc™ MP and analyzed with Image lab software 6.0.1 (Biorad, Hercules, Calif.) or Image J [67].

| SMILES | body weight, hematologic blood parameters, survival (In vivo toxicity study) | histological evaluation of several tissues (In vivo toxicity study) | tolerability after repeated administration (In vivo toxicity study) | leukemic burden of mice xenografted with UBE2N-resistant sample AML-JM60 ([1]; 25 mg/kg IP) | total and ubiquitinated UBE2N in BM cells of mice xenografted with AML-JM40 ([1]; 25 mg/kg, vs vehicle, immunoblot) | reduction in leukemic burden of UBE2N-sensitive AML cells in the BM ([1]; JM7, JM40, JM26, 25 mg/kg IP, P=0.008) | IC50 (AML cell lines; HL-60, NOMO-1, Kasumi-1, MV4-11, MDSL, read-out: IC50, cell lines with intermediate sensitivity) [µM] | IC50 (AML cell lines; MOLM-14, MOLM-13, THP-1, SKM-1, read-out: IC50, highly sensitive cell lines) [µM] | proliferation capacity of cord blood CD34+ cells (Cord Blood CD34+) | IC50 (Cord Blood CD34+; Homo sapiens, Cord Blood CD34+, MTS, 24 hours) [µM] | baseline NF-κB, STAT1, IRF7 and IRF1 activity in UBE2N-dependent AML cells (MOLM-13 and THP-1 cells) |
| --- | --- | --- | --- | --- | --- | --- | --- | --- | --- | --- | --- |
| COc1ccc(C(=O)C=CSc2nc3ccc(C)cc3[nH]2)cc1 [UC-764865, 1-(4-methoxyphenyl)-3-[(6-methyl-1H-benzimidazol-2-yl)sulfanyl]prop-2-en-1-one] | did not significantly affect | no evidence of overall tissue toxicity | no abnormalities noted | did not decrease | reduced | 30-60% | – | – | – | – | – |
| CCc1ccc(C(=O)C=CSc2nc3ccc(C)cc3[nH]2)cc1 [UC-764864, 1-(4-ethylphenyl)-3-[(6-methyl-1H-benzimidazol-2-yl)sulfanyl]prop-2-en-1-one] | – | – | – | – | – | – | 4.3 to 6.7 | 0.02 to 2.5 | did not affect | > 10 | inhibition |
